# Patent EP1093379B1, “USE OF INHIBITORS OF PROTEIN KINASE C EPSILON TO TREAT PAIN” (The Regents of the University of California, priority 1998, dated 2007)
# Read-outs that look alike come from different tables or passages of the source.
# Assays:
# [1] = test system: prolonged PGE2-induced hyperalgesia; assay: Chronic inflammatory pain model: prolonged hyperalgesia in carrageenan-sensitized rats (Randall-Selitto paw-withdrawal test); type: in vivo; details: for duration of hyperalgesia in untreated rats: rats that have not received carrageenan injections; for duration of hyperalgesia in carrageenan-sensitized rats: seen up to three weeks after the carrageenan injection
# From the text: In order to investigate the role, if any, of PKCε in chronic inflammatory pain, the following model system for chronic inflammatory pain was developed. Rats received intradermal hind paw injections of carrageenan, an inflammatory agent. […] This was considered an acute response to the carrageenan-induced inflammation. Although administration of Prostaglandin E2 ("PGE2"), 5-hydroxytryptamine ("5-HT," serotonin) or CGS-21680 (an adenosine A2-selective receptor agonist) normally causes untreated rats (that is, rats that have not received carrageenan injections) to experience hyperalgesia lasting up to 6 hours, the hyperalgesia experienced by carrageenan-sensitized rats following administration of any one of these substances lasted up to 24 hours.
# The prolonged PGE2-induced hyperalgesia normally seen in carrageenan-sensitized rats was inhibited by administration of BIM or εV1-2.
# To examine whether protein kinase C modulates the processes by which a brief inflammatory event causes prolonged hyperalgesia many days later, rats received carrageenan and 1µg BIM injections at the same time. Hyperalgesia was measured 72 hours later, when the rats were treated PGE2. […] Therefore, administration of an inhibitor of PKC either at approximately the same time as the inflammatory agent giving rise to chronic, prolonged hyperalgesia or at about the same time as the hyperalgesia-inducing stimulus can lessen such chronic hyperalgesia.
# [2] = test system: mechanical nociceptive threshold; assay: von Frey hair paw-withdrawal frequency in wild-type mice; type: in vivo; details: 100ng by intraplantar injection prior to VFH stimulation (4, 6.9 or 14.8 grams)
# Experimental: Mechanical, thermal and chemical nociception were evaluated in wild-type and PKCε-mutant mice.
# [3] = test system: PGE2-induced hyperalgesia; details: cited from earlier work; for Percentage decrease in nociceptive threshold in response to PGE2: PGE2 100 ng alone or with DAMGO, SQ22536, Rp-cAMPs (1 µg), data from Khasar 1995 / Taiwo and Levine 1991
# [4] = Rotorod analysis of motor deficits; type: in vivo, rat; details: vincristine 100 µg/kg intravenously daily
# Experimental: (§1) Humans undergoing chemotherapy frequently experience hyperalgesia. Vincristine is a chemotherapeutic drug known to cause such hyperalgesia, and a rat model of vincristine-induced hyperalgesia was established as follows. Vincristine (100 µg/kg in saline; Sigma Chemical Catalog) was administered intravenously daily to each of 32 rats over a period of two weeks.
# [5] = test system: vincristine-induced hyperalgesia; assay: Vincristine-induced hyperalgesia model, mechanical stimuli (Ugo Basile analgesymeter); type: in vivo, rat; details: vincristine 100 µg/kg intravenously daily; after the second day
# Experimental: as §1
# To determine whether administration of an inhibitor of PKCε would lessen vincristine-induced hyperalgesia in the rat model described above, on the 13th day of vincristine treatment, rats received no treatment (n= 16) or intradermal injections of sterile water followed by intradermal injections of either 1µg εV1-2, a PKCε inhibitory peptide (n=8; labeled "PKCεI" on Figure 12A), or 1µg S-VεV1-2, a scrambled version of the εV1-2 peptide (n=8; labeled "PCKεI SCR" on Figure 12A), 20-30 minutes before administration of a mechanical stimulus.
# TTX-RINa = type: cell-based, rat; details: for effect on epinephrine-induced potentiation of TTX-RINa: 2µM propranolol, 5µM phentolamine, 100µM Rp-cAMPs, 100µM BIM
# [6] = test system: epinephrine-induced hyperalgesia; assay: Epinephrine-induced mechanical hyperalgesia, paw-withdrawal threshold (Ugo Basile analgesymeter); type: in vivo, rat
# [7] = test system: small diameter DRG neurons
# [8] = test system: isoproterenol-induced hyperalgesia; assay: Isoproterenol-induced mechanical hyperalgesia, paw-withdrawal threshold; type: in vivo, rat; details: for effect on isoproterenol-induced hyperalgesia: intradermal, BIM 1 µg, WIPTIDE 100 ng, propranolol dose not given
# Experimental: To examine the role of β-AR in epinephrine-induced hyperalgesia, propranolol, a β-AR antagonist, and isoproterenol, a selective β-AR agonist, were administered by intradermal injection.
# (§2) The roles of PKC, protein kinase A ("PKA") and the µ-opioid receptor in mediating epinephrine-induced hyperalgesia were assessed by measuring the effects of: Rp-adenosine 3', 5'-cyclic monophosphate ("Rp-cAMPs") and WIPTIDE, both inhibitors of PKA; SQ22536, an inhibitor of adenylyl cyclase, an enzyme activated by PKA; bisindolymaleimide ("BIM"), a nonselective inhibitor of PKC isozymes; and [D-Ala^2,N-Me-Phe^4,Gly^5-ol]-enkephalin ("DAMGO"), p-opioid receptor agonist. The dose for each inhibitor was 1µg, except for WIPTIDE, which was administered in a 100ng dose. […] A large numeric value means more hyperalgesia.
# [9] = test system: formalin-induced hyperalgesia; details: similar dose of phentolamine; earlier studies; cited from earlier work
# [10] = test system: epinephrine-induced hyperalgesia; assay: Epinephrine-induced mechanical hyperalgesia, paw-withdrawal threshold (Ugo Basile analgesymeter); type: in vivo, rat; details: for effect on epinephrine-induced hyperalgesia: intradermal, rat hindpaw, inhibitors 1 µg (WIPTIDE 100 ng) 15 minutes prior to epinephrine, DAMGO co-injected, antagonist doses not given; for Percentage decrease in nociceptive threshold in response to epinephrine: epinephrine 100 ng alone or with DAMGO, SQ22536, BIM, Rp-cAMPs (all 1 µg) or WIPTIDE (0.1 µg), large value = more hyperalgesia
# Experimental: as §2
# basal paw threshold = details: similar dose of phentolamine, normal rat; earlier studies; cited from earlier work
# [11] = test system: PGE2-induced hyperalgesia; assay: PGE2-induced mechanical hyperalgesia, paw-withdrawal threshold; type: in vivo, rat
# Experimental: The roles of PKC, protein kinase A ("PKA") and the µ-opioid receptor in mediating epinephrine-induced hyperalgesia were assessed by measuring the effects of: Rp-adenosine 3', 5'-cyclic monophosphate ("Rp-cAMPs") and WIPTIDE, both inhibitors of PKA; SQ22536, an inhibitor of adenylyl cyclase, an enzyme activated by PKA; bisindolymaleimide ("BIM"), a nonselective inhibitor of PKC isozymes; and [D-Ala^2,N-Me-Phe^4,Gly^5-ol]-enkephalin ("DAMGO"), p-opioid receptor agonist. The dose for each inhibitor was 1µg, except for WIPTIDE, which was administered in a 100ng dose. DAMGO was co-injected with epinephrine whereas the other inhibitors were applied 15 minutes prior to epinephrine injection. […] TABLE 1: Percentage decrease in nociceptive threshold in response to epinephrine, PGE2 or isoproterenol (each 100 ng) and effects of DAMGO, SQ22536, BIM, Rp-cAMPs (all 1 µg) or WIPTIDE (0.1 µg). A large numeric value means more hyperalgesia.
# For mechanical nociceptive testing, the nociceptive flexion reflex was quantified using an Ugo Basile analgesymeter that applies a constantly increasing force measured in grams (Stoelting, Chicago, IL; K. O. Aley, J. D. Levine, J. Neurosci. 17, 8018-23 (1997)). The mean basal mechanical threshold for rats used in these experiments was 105.3+/-2.8 grams. The effects of hyperalgesia-inducing agents epinephrine (100ng) and PGE2 (100ng) on mechanical nociceptive thresholds were determined by measuring paw withdrawal frequencies at 15, 20, and 25 minutes after administration of the hyperalgesic agent and then calculating the mean of these three readings.
# [12] = test system: PGE2-induced hyperalgesia; details: PGE2 100 ng alone or with DAMGO, SQ22536, Rp-cAMPs (1 µg); data from Khasar 1995 / Taiwo and Levine 1991; cited from earlier work
# [13] = 1µM epinephrine with 100µM BIM v. epinephrine alone
# [14] = after 1µg epinephrine injection
compound,measurement,setting,value
"NCCc1c[nH]c2ccc(O)cc12 [5-HT, 5-hydroxytryptamine]",duration of hyperalgesia in untreated rats,[1],up to 6 hours
same,duration of hyperalgesia in carrageenan-sensitized rats,[1],up to 24 hours
CCNC(=O)[C@H]1O[C@@H](n2cnc3c(N)nc(NCCc4ccc(CCC(=O)O)cc4)nc32)[C@H](O)[C@@H]1O [CGS-21680],duration of hyperalgesia in untreated rats,[1],up to 6 hours
same,duration of hyperalgesia in carrageenan-sensitized rats,[1],up to 24 hours
"CCCCC[C@H](O)/C=C/[C@H]1[C@H](O)CC(=O)[C@@H]1C/C=C\CCCC(=O)O [PGE2, prostaglandin E2]",percent-withdrawal response to VFH stimulus,[2],dramatically increased
same,Percentage decrease in nociceptive threshold in response to PGE2,[3],33.6±1.9%
same,duration of hyperalgesia in untreated rats,[1],up to 6 hours
same,duration of hyperalgesia in carrageenan-sensitized rats,[1],up to 24 hours
CC[C@]1(O)C[C@H]2CN(CCc3c([nH]c4ccccc34)[C@@](C(=O)OC)(c3cc4c(cc3OC)N(C=O)[C@H]3[C@@](O)(C(=O)OC)[C@H](OC(C)=O)[C@]5(CC)C=CCN6CC[C@]43[C@@H]65)C2)C1 [Vincristine],motor deficits (Rotorod analysis),[4],did not show any significant motor deficits
same,mechanical nociceptive thresholds of vincristine-treated rats,[5],acute dose-dependent decrease in mechanical nociceptive thresholds
CNC[C@H](O)c1ccc(O)c(O)c1 [epinephrine],mean peak current increase,TTX-RINa; [13],49%
same,number of neurons responsive to epinephrine,TTX-RINa; [13],8 out of 11
same,neurons with an increase in TTX-RINa,"TTX-RINa; 1µM epinephrine, 14 out of 21 neurons",67%
same,shift of current-voltage plots for activation,"TTX-RINa; 1µM epinephrine, hyperpolarized direction",approximately 10 mV
same,effect on TTX-RINa,"TTX-RINa; 1µM epinephrine, isoproterenol application",marked potentiation
same,percent-withdrawal response to VFH stimulus,[2],dramatically increased
same,duration of epinephrine-induced hyperalgesia,[6]; [14],approximately 2 hours
same,onset latency of epinephrine-induced hyperalgesia (significant),[6]; [14],2 min
same,time to peak effect of hyperalgesia,[6]; [14],≤ 5 min
same,Percentage decrease in nociceptive threshold in response to epinephrine,"[6]; epinephrine 100 ng alone or with DAMGO, SQ22536, BIM, Rp-cAMPs (all 1 µg) or WIPTIDE (0.1 µg), large value = more hyperalgesia",29.6±2.1%
same,threshold reduction (mechanical nociceptive threshold),"[6]; epinephrine 100ng only, or sterile water and 1µg scrambled peptide prior to epinephrine, mean of 15, 20, 25 minutes, n=8",25-30%
same,threshold at which the rat withdrew the paw,"[6]; intradermal injections of 1ng to 1µg epinephrine, dorsal surface of hindpaw",dose-dependent decrease
same,mean resting potentials,[7]; 1µM epinephrine,unaffected
same,average number of action potentials generated in response to the current ramp-and-plateau,"[7]; 1µM epinephrine, five minutes or more after start of perfusion, 1.7±0.2 before, 11 neurons",5.3±0.9
same,neurons showing a decrease in spike latency of at least 50ms,"[7]; 1µM epinephrine, 5 of 11 neurons",45%
same,neurons showing an increase in spike number,"[7]; 1µM epinephrine, nine of 11 neurons",81%
same,mean latency from the start of current injection to the peak of the first spike,"[7]; following 1µM epinephrine perfusion, 278±42ms without epinephrine, n=11",189 ± 21 ms
COc1ccc2c(c1)c(CC(=O)O)c(C)n2C(=O)c1ccc(Cl)cc1 [indomethacin],effect on the ability of epinephrine to induce hyperalgesia,"[6]; continuous treatment with 4mg/kg of indomethacin, n=8",Neither indomethacin treatment nor sympathectomy had any effect
CC(C)NCC(O)c1ccc(O)c(O)c1 (centres unmarked) [isoproterenol],hyperalgesia produced in the absence of epinephrine,[8]; intradermal injection of isoproterenol,dose-dependent hyperalgesia
Cc1ccc(N(CC2=NCCN2)c2cccc(O)c2)cc1 [phentolamine],effect on epinephrine-induced potentiation of TTX-RINa,TTX-RINa; 1µM epinephrine,did not
same,effect on ability of rolipram to prolong PGE2-induced hyperalgesia,"[3]; similar dose of phentolamine, earlier studies",inhibited
same,effect on formalin-induced hyperalgesia,[9],significantly reversed
same,effect on epinephrine-induced hyperalgesia,[10],did not significantly affect
same,effect on basal paw threshold,basal paw threshold,no effect
CC(C)NCC(O)COc1cccc2ccccc12 (centres unmarked) [propranolol],effect on epinephrine-induced potentiation of TTX-RINa,TTX-RINa; 1µM epinephrine,eliminated this potentiation
same,effect on isoproterenol-induced hyperalgesia,[8],significantly attenuated
same,effect on epinephrine-induced hyperalgesia,[10],significantly attenuated
"Rp-adenosine 3', 5'-cyclic monophosphate [Rp-cAMPs]",effect on epinephrine-induced potentiation of TTX-RINa,TTX-RINa; 1µM epinephrine,abolished
same,Percentage decrease in nociceptive threshold in response to PGE2,[3],3.1 ± 5.2 %
same,Percentage decrease in nociceptive threshold in response to epinephrine,[10],13.9 ± 4.6 %
WIPTIDE,effect on isoproterenol-induced hyperalgesia,[8],almost completely abolished
same,Percentage decrease in nociceptive threshold in response to isoproterenol,[8]; isoproterenol 100 ng alone or with BIM (1 µg) or WIPTIDE (0.1 µg),1 ± 2.8 %
same,Percentage decrease in nociceptive threshold in response to PGE2,[11]; PGE2 100 ng with BIM (1 µg) or WIPTIDE (0.1 µg),9.4 ± 3.1 %
same,effect on PGE2-induced hyperalgesia,"[11]; same dose as for epinephrine: BIM 1 µg, WIPTIDE 100 ng",significantly attenuated
same,Percentage decrease in nociceptive threshold in response to epinephrine,[10],10.9 ± 3.6 %
"[D-Ala^2,N-Me-Phe^4,Gly^5-ol]-enkephalin [DAMGO]",Percentage decrease in nociceptive threshold in response to PGE2,[12],11.1 ± 4.0 %
same,Percentage decrease in nociceptive threshold in response to epinephrine,[10],11.5 ± 3.1 %
